Assay results from patent US20250101025A1, “NOVEL PLK1 DEGRADATION INDUCING COMPOUND” (UPPTHERA, INC., priority 2021, published 2025).

Columns and labels:
Format in all cases: cell-based
PLK1 = molecular target: T1, PLK1 (Homo sapiens, UniProt P53350); assay: Luciferase assay for PLK1 in HeLa LgBit (Plk1-HiBit KI) cell line; conditions: compound 300 nM, luminescence after 9 hours
T1 construct: endogenous in cells; host or cells: HeLa LgBit (Plk1-HiBit KI): HeLa stably expressing LgBit, with HiBit knocked in at the endogenous Plk1 locus by CRISPR/Cas9
Method: 2. Luciferase Assay for PLK1
(1) Preparation and Culture of HeLa LgBit (Plk1-HiBit KI) Cell Line
A HeLa cell line in which the LgBit vector was transfected and expressed stably was prepared. Then, after constructing gRNA and donor to express the HiBit amino acid sequence behind the C-terminal of the Plk1 gene, which was inherent in the cell, it was inserted into the cell together with a vector capable of expressing CRISPR/Cas9. Only the cells in which the insertion was completed and knock-in had progressed were selected, sub-cultured and used.
(2) Treatment of Compounds of the Present Invention and Method of Luciferase Assay
In the case of HeLa LgBit (Plk1-HiBit KI), the compounds were treated after being released after thymidine block, and the process was as follows. Thymidine (Sigma-Aldrich Cat. No. T9250-5G) was completely dissolved in DW and used in the experiment. For thymidine block, the products were treated with 2 mM of thymidine and then incubated for 24 hours. For release and chemical treatment, the medium was suctioned and washed with 1×PBS. TrypLE™ was added and incubated in 37° C. CO2 incubator for 5 min. Cells neutralized by adding complete media were counted through a counter. For each well of a 96-well culture plate (SPL), 3.3×10^4 cells and a total medium volume of 150 μL were seeded and incubated in a CO2 incubator.
Each cell line was incubated in a CO2 incubator for 18 hours, and Endurazine was added to each well to make up 4% of the total volume. After adding the compound of the present invention in a 96-well white plate (SPL) to a concentration of 300 nM, the wavelength of the plate reader (BMG Labtech, CLARIOstar Plus) was set to […], and then the luminescence was tracked in real time.
In Table 2, Activity represents the ratio of the luminescence value of each Exemplary Compound treatment group to DMSO treatment group (+++: <0.3, ++<0.6, +<0.7).

H526 cell line = assay: Cell viability assay for NCI-H526 cell line (EZ-Cytox); conditions: Homo sapiens, NCI-H526, 120 h; H526 cells, 3-fold dilutions 3000 nM to 0.46 nM, 5 days
Method: (1) Culture of NCI-H526 Cell Line
(2) Treatment of Compounds of the Present Invention and Method of Cell Viability Assay
After treating the compound to each well to make the total volume of 200 μL, it was cultured in a CO2 incubator (Thermo Fisher Science, Cat. No. 4111) for 5 days.
The absorbance of the completely cultured sample was measured by setting the wavelength of a plate reader (BMG Labtech, CLARIOstar Plus) to […], and was measured after shaking for 3 minutes in a plate reader before measurement.
In Table 3, Activity represents IC50 value of each Exemplary Compound treatment group to H526 cell line (A: <30 nM, B: <50 nM, C: <100 nM, D: <200 nM, E: <400 nM).

MRC-5 cell line = assay: Cell viability assay for MRC-5 cell line (EZ-Cytox cytotoxicity experiment); conditions: Homo sapiens, MRC5, 120 h; MRC-5 normal cell line, highest concentration 10000 nM, 5 days; N.D. = no cytotoxicity until 10 μM; read-out: Activity: IC50 value to MRC-5 cell line, N.D. cells
Method: 4. Cell Viability Assay for MRC-5 Cell Line
(1) Culture of MRC-5 Cell Line
Passage of cultured cells was maintained within P15.
(2) Treatment of Compounds of the Present Invention
Then, it was cultured in 37° C.
(3) Cytotoxicity Experiment
CO2 incubator for 4 hours.

T1 sequence (P53350 whole entry): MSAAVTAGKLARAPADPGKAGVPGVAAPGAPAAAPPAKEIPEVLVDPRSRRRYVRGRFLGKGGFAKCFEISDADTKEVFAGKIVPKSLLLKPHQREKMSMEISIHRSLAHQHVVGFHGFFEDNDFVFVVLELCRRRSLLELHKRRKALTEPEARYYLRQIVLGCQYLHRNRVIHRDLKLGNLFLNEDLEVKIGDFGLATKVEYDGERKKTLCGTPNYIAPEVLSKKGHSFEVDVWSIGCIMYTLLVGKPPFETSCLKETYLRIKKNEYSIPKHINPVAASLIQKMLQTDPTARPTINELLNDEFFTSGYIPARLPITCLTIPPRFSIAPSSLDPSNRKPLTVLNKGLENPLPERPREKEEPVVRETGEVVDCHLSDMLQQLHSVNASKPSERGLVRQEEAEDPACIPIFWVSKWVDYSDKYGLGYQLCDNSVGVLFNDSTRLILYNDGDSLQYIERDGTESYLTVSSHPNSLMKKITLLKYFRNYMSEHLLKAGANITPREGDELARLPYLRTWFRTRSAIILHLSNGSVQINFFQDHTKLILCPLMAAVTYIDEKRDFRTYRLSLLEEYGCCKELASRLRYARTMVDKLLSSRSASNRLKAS

Activity: ratio of the luminescence value of each Exemplary Compound treatment group to DMSO treatment group (PLK1)	SMILES	IC50 (H526 cell line) [nM]	IC50 (MRC-5 cell line) [nM]
++ (++<0.6)	COc1cc(C(=O)NN2CCC(CN3CCN(c4cccc(C(=O)NC5CCC(=O)NC5=O)c4)CC3)CC2)ccc1Nc1ncc2c(n1)N(C1CCCC1)CC(F)(F)C(=O)N2C (centres unmarked) [Compound 9, 4-((9-cyclopentyl-7,7-difluoro-5-methyl-6-oxo-6,7,8,9-tetrahydro-5H-pyrimido[4,5-b][1,4]diazepin-2-yl)amino)-N-(4-((4-(3-((2,6-dioxopiperidin-3-yl)carbamoyl)phenyl)piperazin-1-yl)methyl)piperidin-1-yl)-3-methoxybenzamide]	< 50	> 10000
++ (++<0.6)	COc1cc(C(=O)NN2CCC(CCN3CCN(c4cccc(C(=O)NC5CCC(=O)NC5=O)c4)CC3)CC2)ccc1Nc1ncc2c(n1)N(C1CCCC1)CC(F)(F)C(=O)N2C (centres unmarked) [Compound 10, 4-((9-cyclopentyl-7,7-difluoro-5-methyl-6-oxo-6,7,8,9-tetrahydro-5H-pyrimido[4,5-b][1,4]diazepin-2-yl)amino)-N-(4-(2-(4-(3-((2,6-dioxopiperidin-3-yl)carbamoyl)phenyl)piperazin-1-yl)ethyl)piperidin-1-yl)-3-methoxybenzamide]	< 30	> 10000
++ (++<0.6)	COc1cc(C(=O)NN2CCC(CCN3CCN(c4cccc(C(=O)NC5CCC(=O)NC5=O)c4)CC3)C2)ccc1Nc1ncc2c(n1)N(C1CCCC1)CC(F)(F)C(=O)N2C (centres unmarked) [Compound 11, 4-((9-cyclopentyl-7,7-difluoro-5-methyl-6-oxo-6,7,8,9-tetrahydro-5H-pyrimido[4,5-b][1,4]diazepin-2-yl)amino)-N-(3-(2-(4-(3-((2,6-dioxopiperidin-3-yl)carbamoyl)phenyl)piperazin-1-yl)ethyl)pyrrolidin-1-yl)-3-methoxybenzamide]	< 30	> 10000
+++ (+++: <0.3)	COc1cc(C(=O)NC2CCN(C(=O)CCN3CCN(c4ccc(NC5CCC(=O)NC5=O)cc4)CC3)CC2)ccc1Nc1ncc2c(n1)N(C1CCCC1)CC(F)(F)C(=O)N2C (centres unmarked) [Compound 13, 4-((9-cyclopentyl-7,7-difluoro-5-methyl-6-oxo-6,7,8,9-tetrahydro-5H-pyrimido[4,5-b][1,4]diazepin-2-yl)amino)-N-(1-(3-(4-(4-((2,6-dioxopiperidin-3-yl)amino)phenyl)piperazin-1-yl)propanoyl)piperidin-4-yl)-3-methoxybenzamide]	< 30	> 10000
+++ (+++: <0.3)	COc1cc(C(=O)NC2CC3(CCN(CC4CCN(c5ccc(N(C)C6CCC(=O)NC6=O)cc5)CC4)CC3)C2)ccc1Nc1ncc2c(n1)N(C(C)C)CC(F)(F)C(=O)N2C (centres unmarked) [Compound 27, 4-((7,7-difluoro-9-isopropyl-5-methyl-6-oxo-6,7,8,9-tetrahydro-5H-pyrimido[4,5-b][1,4]diazepin-2-yl)amino)-N-(7-((1-(4-((2,6-dioxopiperidin-3-yl)(methyl)amino)phenyl)piperidin-4-yl)methyl)-7-azaspiro[3.5]nonan-2-yl)-3-methoxybenzamide]	< 30	
++ (++<0.6)	COc1cc(C(=O)NN2CCC(N3CC4(CCN(c5ccc(N(C)C6CCC(=O)NC6=O)cc5)CC4)C3)CC2)ccc1Nc1ncc2c(n1)N(C(C)C)CC(F)(F)C(=O)N2C (centres unmarked) [Compound 31, 4-((7,7-difluoro-9-isopropyl-5-methyl-6-oxo-6,7,8,9-tetrahydro-5H-pyrimido[4,5-b][1,4]diazepin-2-yl)amino)-N-(4-(7-(4-((2,6-dioxopiperidin-3-yl)(methyl)amino)phenyl)-2,7-diazaspiro[3.5]nonan-2-yl)piperidin-1-yl)-3-methoxybenzamide]	< 100	
+ (+<0.7)	COc1cc(C(=O)NN2CCC(N3CC4(CCN(c5cccc6c5n(C)c(=O)n6C5CCC(=O)NC5=O)CC4)C3)CC2)ccc1Nc1ncc2c(n1)N(C(C)C)CC(F)(F)C(=O)N2C (centres unmarked) [Compound 41, 4-((7,7-difluoro-9-isopropyl-5-methyl-6-oxo-6,7,8,9-tetrahydro-5H-pyrimido[4,5-b][1,4]diazepin-2-yl)amino)-N-(4-(7-(1-(2,6-dioxopiperidin-3-yl)-3-methyl-2-oxo-2,3-dihydro-1H-benzo[d]imidazol-4-yl)-2,7-diazaspiro[3.5]nonan-2-yl)piperidin-1-yl)-3-methoxybenzamide]		

More lines, now with the values behind:

SMILES	Activity: ratio of the luminescence value of each Exemplary Compound treatment group to DMSO treatment group (PLK1)	IC50 (H526 cell line) [nM]	IC50 (MRC-5 cell line) [nM]
COc1cc(C(=O)NC2CCN(C(=O)CCCNc3ccc(C(=O)NC4CCC(=O)NC4=O)cc3)CC2)c(F)cc1Nc1ncc2c(n1)N(C1CCCC1)CC(F)(F)C(=O)N2C (centres unmarked) [Compound 1, 4-((9-cyclopentyl-7,7-difluoro-5-methyl-6-oxo-6,7,8,9-tetrahydro-5H-pyrimido[4,5-b][1,4]diazepin-2-yl)amino)-N-(1-(4-((4-((2,6-dioxopiperidin-3-yl)carbamoyl)phenyl)amino)butanoyl)piperidin-4-yl)-2-fluoro-5-methoxybenzamide]	++ (++<0.6)	< 50	> 10000
COc1cc(C(=O)NC2CCN(C(=O)CCN3CCN(c4ccc(C(=O)NC5CCC(=O)NC5=O)cc4)CC3)CC2)ccc1Nc1ncc2c(n1)N(C1CCCC1)CC(F)(F)C(=O)N2C (centres unmarked) [Compound 4, 4-((9-cyclopentyl-7,7-difluoro-5-methyl-6-oxo-6,7,8,9-tetrahydro-5H-pyrimido[4,5-b][1,4]diazepin-2-yl)amino)-N-(1-(3-(4-(4-((2,6-dioxopiperidin-3-yl)carbamoyl)phenyl)piperazin-1-yl)propanoyl)piperidin-4-yl)-3-methoxybenzamide]	+ (+<0.7)		
COc1cc(C(=O)NC2CCN(C(=O)CCN3CCN(c4cccc(C(=O)NC5CCC(=O)NC5=O)c4F)CC3)CC2)ccc1Nc1ncc2c(n1)N(C1CCCC1)CC(F)(F)C(=O)N2C (centres unmarked) [Compound 6, 3-(4-(3-(4-(4-((9-cyclopentyl-7,7-difluoro-5-methyl-6-oxo-6,7,8,9-tetrahydro-5H-pyrimido[4,5-b][1,4]diazepin-2-yl)amino)-3-methoxybenzamido)piperidin-1-yl)-3-oxopropyl)piperazin-1-yl)-N-(2,6-dioxopiperidin-3-yl)-2-fluorobenzamide]	++ (++<0.6)	< 50	> 10000
COc1cc(C(=O)NC2CCN(C(=O)CCN3CCN(c4ccc(C(=O)NC5CCC(=O)NC5=O)nc4)CC3)CC2)ccc1Nc1ncc2c(n1)N(C1CCCC1)CC(F)(F)C(=O)N2C (centres unmarked) [Compound 7, 5-(4-(3-(4-(4-((9-cyclopentyl-7,7-difluoro-5-methyl-6-oxo-6,7,8,9-tetrahydro-5H-pyrimido[4,5-b][1,4]diazepin-2-yl)amino)-3-methoxybenzamido)piperidin-1-yl)-3-oxopropyl)piperazin-1-yl)-N-(2,6-dioxopiperidin-3-yl)picolinamide]	+ (+<0.7)		
COc1cc(C(=O)NC2CC3(CCN(CC4CCN(c5ccc6c(N7CCC(=O)NC7=O)nn(C)c6c5)CC4)CC3)C2)ccc1Nc1ncc2c(n1)N(C1CCCC1)CC(F)(F)C(=O)N2C [Compound 40, 4-((9-cyclopentyl-7,7-difluoro-5-methyl-6-oxo-6,7,8,9-tetrahydro-5H-pyrimido[4,5-b][1,4]diazepin-2-yl)amino)-N-(7-((1-(3-(2,4-dioxotetrahydropyrimidin-1 (2H)-yl)-1-methyl-1H-indazol-6-yl)piperidin-4-yl)methyl)-7-azaspiro[3.5]nonan-2-yl)-3-methoxybenzamide]		< 30	
